Experiments:
CYP1A2 = target: T1, CYP1A2 (Homo sapiens, UniProt P05177); experiment: Fluorescence-based CYP inhibition, CYP1A2; type: in vitro ADME
T1 construct: purchased Cypex, Dundee, UK; host or cells: bacterial membranes (bactosomes)
Experimental: (§1) 4.7 F lu or e s ce nce-based CYP I nhibition usin g recombinantly expressed CYP b actosomes Fl uorogeni c C YP i nhi bi t i on s t udi es w ere c ondu ct ed at 37 °C i n 96-well, flat-bot t om, cl ear p ol y s t y rene pl at es. I ncubat i on mi xt ures cont ai ni ng Eas y C YP bact os omes (1000 pmol /ml , 10 mg /ml C y pex TM, Dundee, UK), fl uorogeni c substrate (Cypex TM) and 50 mM potas s i um phosphat e buffer (p H 7. 4) w er e prepared at t he fol l ow i ng fi nal concent rat i ons : C YP1A2, 5 pmol /ml + 35 µ M et hox y res orufi n (ER) ; CYP2C9, 10 pm ol/ml + 30 µM 7-methoxy-4-(tri fl uo romethy l )-coumari n (MFC ); C YP 2C 19, 5 pm ol /ml + 25 µM 3-cy ano-7-eth oxycoumarin (CEC); C YP 2D 6, 10 pmol /ml + 6 µM 7-meth oxy-4-(ami nomethy l )- coumari n (MAMC ); C YP 3A4, 10 pmol /ml + 1 µM diethoxyfluorescein (DEF) and 10 pmol /ml + 15 µM 7-benz y l ox y qui nol i ne (BQ ). […] 0125 ( 1A2 and 2C 9 onl y ) o r 0. 025 mg /ml (al l ot her i s oforms ). […] Positive control inhibitor, miconazole, was prepared as a 500 µM s olution in DMSO and similarly diluted.
(§2) For eac h i sofo rm, 2 20 µl of i ncubati on mi x was added to each wel l of a 96-well, flat-bot t om, cl ear pol y s t y rene pl at e. Al i quot s (5 µl) of each compound 5 conce ntrati on was then mi x ed wi th 220 µl of the incubation mix and pre-incubated at 37 °C for 5 min (final test compound concentration range: […]

CYP3A4 = target: T2, CYP3A4 (Homo sapiens, UniProt P08684); experiment: Fluorescence-based CYP inhibition, CYP3A4; type: in vitro ADME
T2 construct: purchased Cypex, Dundee, UK; host or cells: bacterial membranes (bactosomes)
T2 sequence (P08684 whole entry): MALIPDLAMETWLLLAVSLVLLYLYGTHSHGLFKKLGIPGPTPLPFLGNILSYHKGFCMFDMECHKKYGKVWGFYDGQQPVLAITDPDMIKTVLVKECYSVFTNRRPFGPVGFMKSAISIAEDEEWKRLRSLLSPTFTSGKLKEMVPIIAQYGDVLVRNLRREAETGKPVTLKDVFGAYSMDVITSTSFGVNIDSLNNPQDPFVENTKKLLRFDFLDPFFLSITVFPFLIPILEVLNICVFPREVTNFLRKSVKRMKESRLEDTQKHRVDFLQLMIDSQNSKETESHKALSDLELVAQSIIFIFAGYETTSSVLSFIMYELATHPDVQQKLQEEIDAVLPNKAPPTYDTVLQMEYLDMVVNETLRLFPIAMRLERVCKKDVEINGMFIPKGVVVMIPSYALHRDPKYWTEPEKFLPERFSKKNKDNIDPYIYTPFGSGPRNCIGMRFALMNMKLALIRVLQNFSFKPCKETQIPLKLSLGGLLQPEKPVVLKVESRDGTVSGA
Experimental: as §1, §2

Pf(TM90C2B) = experiment: Drug resistant P. falciparum TM90C2B, [3H]-hypoxanthine incorporation; type: cell-based; details: Plasmodium falciparum, atovaquone-resistant
Text: 3.2 Cytotoxicity Studies (Dundee)
In vi t ro cy totox i ci ty s tudies can be ca rri ed out us i ng Hep G 2 (Human C aucas i an hepatocy te ca rci noma, ECACC cat. no. 850 114 30) us ed as i ndi cators f or g eneral mammal i an cel l tox i ci ty . […]
3.3 In vitro Cell Assay D ata Analysis (Du ndee) […]
as 0%. Qual i ty control c ri teri a for passi ng pl ates were as fol l ow s : Z’ > 0.
< 15 . T he f ormula used to calculate Z’ is 1- 3´ (St D e v _ hi gh + St D e v_ low) . […]
Al l EC50 Curve fitti ng was undertaken usi ng XLFi t versi on 4.2 usi ng Model 205 wi th the foll owi ng 4 paramet ri c equat i on: A + (?-A) ,where A=% i nhi bi ti on at bo ttom, B=% i nhi bi ti on at top, C= EC , […]
D= slope, x= inhibitor concentration a nd y= % inhibition. […]
was fixed to 100 only when at least 50% of inhibition was reached. […]
Hoffmann-La Ro che Ltd) a nd resi stant strai ns K1 and TM90C2B (fr om the Malaria Research an d Reference Reag ent Res ou rce C enter, accu rate d es cri pti ons of the g eneti c backg roun ds of thes e strains can be obtained at http://www.beiresources.org) were cultivated in a variation of the medium prev i ous l y des cri bed (5, 6), c onsi sti ng of RPMI 16 40 su ppl emented wi th 0.5% ALBUMAX® II, 25 m M Hepes , 25 mM NaHC O3 (pH 7. […] The re s ul t s were recorded and expressed as a percentage of the untreated controls. […]

T1 sequence (P05177 whole entry): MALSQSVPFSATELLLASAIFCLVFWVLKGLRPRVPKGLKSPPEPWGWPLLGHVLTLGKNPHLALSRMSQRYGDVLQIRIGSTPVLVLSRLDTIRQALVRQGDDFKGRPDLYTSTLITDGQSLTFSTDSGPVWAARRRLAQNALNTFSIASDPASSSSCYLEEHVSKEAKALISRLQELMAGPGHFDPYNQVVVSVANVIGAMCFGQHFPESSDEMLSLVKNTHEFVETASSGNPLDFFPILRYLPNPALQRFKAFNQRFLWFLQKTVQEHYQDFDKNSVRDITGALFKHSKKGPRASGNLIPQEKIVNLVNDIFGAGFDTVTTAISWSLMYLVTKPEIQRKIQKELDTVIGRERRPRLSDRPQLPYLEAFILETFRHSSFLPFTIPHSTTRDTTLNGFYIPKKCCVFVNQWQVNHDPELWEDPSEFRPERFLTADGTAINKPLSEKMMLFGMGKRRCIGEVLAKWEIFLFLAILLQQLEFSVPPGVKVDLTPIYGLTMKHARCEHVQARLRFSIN

In the case of `O=C(NCC1(O)CCC(F)(F)CC1)c1cc(=O)c2cc(F)ccc2o1` [Compound 5], the IC50 (CYP1A2) is reported as over 10 µM, the IC50 (CYP3A4) is reported as over 10 µM and the EC50 (Pf(TM90C2B)) is reported as 0.52 µM.
